Laboratory results from patent US20250213558A1, “T-TYPE CALCIUM CHANNEL MODULATORS COMPRISING A PIPERAZINE OR 1,4-DIAZEPANE CORE AND METHODS OF USE THEREOF” (Praxis Precision Medicines, Inc., priority 2022, published 2025).
Read-outs that look alike come from different tables or passages of the source.

Target: T1, Human Cav3.1 calcium channel (Homo sapiens, UniProt O43497)
T1 construct: expressed in transfected cells; host or cells: HEK-293 natClytin/TASK1+Cav3.1 cell line
Test: Human Cav3.1 calcium channel patch clamp assay (SyncroPatch 384PE; single point and IC50, voltage dependent block)
Format: cell-based
Settings: for % Inhibition (Single Point Data): patch clamp
Description: Certain compounds (as indicated) were tested for Human Cav3.1 calcium channel activity via a patch clamp assay as disclosed herein.
Pulse generation and data collection were performed with PatchController384 V1.3.0 and DataController384 V1.2.1 (Nanion Technologies). Offline analysis was performed using Excel and Graphpad Prism (V 8.4.2) with complete data files uploaded to Dotmatics. The access resistance and apparent membrane capacitance were estimated using built-in protocols. Current was recorded in whole cell configuration from a population of cells. The cells were lifted, triturated, and resuspended at 800,000 cells/ml. The cells were allowed to recover in the cell hotel prior to experimentation. Currents were recorded at room temperature. The external solution contained the following (in mM): NaCl 80, NMDG 60, KCl 4, MgCl2 1, CaCl2 6, glucose 5 and HEPES 10 (pH=7.4, Osmolarity˜300 mOsm). The extracellular solution was used as the wash, reference and compound delivery solution.
The compound plate was created at 2× concentrated in the extracellular solution. The compound was diluted to 1:2 when added to the recording well. The amount of DMSO in the extracellular solution was held constant at the level used for the highest tested concentration. For the voltage clamp experiments on Cav3.1, data were sampled at 10 KHz. After establishment of the seal and the passage in the whole cell configuration, the cells were held at −120 mV. Cav3.1 current was evoked using a 100 ms step to −20 mV (to measure resting state block), followed by a 1600 ms step to −65 mV and a second 100 ms step to −20 mV (to measure voltage dependent block). The voltage protocol was applied every 15 seconds in the absence and in the presence of the compounds under investigation. […] Current amplitude (pA) was measured in the peak 1 and 2. The average of last 3 sweeps of each liquid period (vehicle, compound under investigation, full block) was calculated. Nickel-sensitive current was used to calculate the % of inhibition in the presence of the compound under investigation.

[1] = Testing Conc 1.25, HEK-293 natClytin/TASK1+Cav3.1 cell line
[2] = voltage dependent block (VDB), HEK-293 natClytin/TASK1+Cav3.1 cell line, read-out: Cav3.1 IC50

T1 sequence (O43497 whole entry): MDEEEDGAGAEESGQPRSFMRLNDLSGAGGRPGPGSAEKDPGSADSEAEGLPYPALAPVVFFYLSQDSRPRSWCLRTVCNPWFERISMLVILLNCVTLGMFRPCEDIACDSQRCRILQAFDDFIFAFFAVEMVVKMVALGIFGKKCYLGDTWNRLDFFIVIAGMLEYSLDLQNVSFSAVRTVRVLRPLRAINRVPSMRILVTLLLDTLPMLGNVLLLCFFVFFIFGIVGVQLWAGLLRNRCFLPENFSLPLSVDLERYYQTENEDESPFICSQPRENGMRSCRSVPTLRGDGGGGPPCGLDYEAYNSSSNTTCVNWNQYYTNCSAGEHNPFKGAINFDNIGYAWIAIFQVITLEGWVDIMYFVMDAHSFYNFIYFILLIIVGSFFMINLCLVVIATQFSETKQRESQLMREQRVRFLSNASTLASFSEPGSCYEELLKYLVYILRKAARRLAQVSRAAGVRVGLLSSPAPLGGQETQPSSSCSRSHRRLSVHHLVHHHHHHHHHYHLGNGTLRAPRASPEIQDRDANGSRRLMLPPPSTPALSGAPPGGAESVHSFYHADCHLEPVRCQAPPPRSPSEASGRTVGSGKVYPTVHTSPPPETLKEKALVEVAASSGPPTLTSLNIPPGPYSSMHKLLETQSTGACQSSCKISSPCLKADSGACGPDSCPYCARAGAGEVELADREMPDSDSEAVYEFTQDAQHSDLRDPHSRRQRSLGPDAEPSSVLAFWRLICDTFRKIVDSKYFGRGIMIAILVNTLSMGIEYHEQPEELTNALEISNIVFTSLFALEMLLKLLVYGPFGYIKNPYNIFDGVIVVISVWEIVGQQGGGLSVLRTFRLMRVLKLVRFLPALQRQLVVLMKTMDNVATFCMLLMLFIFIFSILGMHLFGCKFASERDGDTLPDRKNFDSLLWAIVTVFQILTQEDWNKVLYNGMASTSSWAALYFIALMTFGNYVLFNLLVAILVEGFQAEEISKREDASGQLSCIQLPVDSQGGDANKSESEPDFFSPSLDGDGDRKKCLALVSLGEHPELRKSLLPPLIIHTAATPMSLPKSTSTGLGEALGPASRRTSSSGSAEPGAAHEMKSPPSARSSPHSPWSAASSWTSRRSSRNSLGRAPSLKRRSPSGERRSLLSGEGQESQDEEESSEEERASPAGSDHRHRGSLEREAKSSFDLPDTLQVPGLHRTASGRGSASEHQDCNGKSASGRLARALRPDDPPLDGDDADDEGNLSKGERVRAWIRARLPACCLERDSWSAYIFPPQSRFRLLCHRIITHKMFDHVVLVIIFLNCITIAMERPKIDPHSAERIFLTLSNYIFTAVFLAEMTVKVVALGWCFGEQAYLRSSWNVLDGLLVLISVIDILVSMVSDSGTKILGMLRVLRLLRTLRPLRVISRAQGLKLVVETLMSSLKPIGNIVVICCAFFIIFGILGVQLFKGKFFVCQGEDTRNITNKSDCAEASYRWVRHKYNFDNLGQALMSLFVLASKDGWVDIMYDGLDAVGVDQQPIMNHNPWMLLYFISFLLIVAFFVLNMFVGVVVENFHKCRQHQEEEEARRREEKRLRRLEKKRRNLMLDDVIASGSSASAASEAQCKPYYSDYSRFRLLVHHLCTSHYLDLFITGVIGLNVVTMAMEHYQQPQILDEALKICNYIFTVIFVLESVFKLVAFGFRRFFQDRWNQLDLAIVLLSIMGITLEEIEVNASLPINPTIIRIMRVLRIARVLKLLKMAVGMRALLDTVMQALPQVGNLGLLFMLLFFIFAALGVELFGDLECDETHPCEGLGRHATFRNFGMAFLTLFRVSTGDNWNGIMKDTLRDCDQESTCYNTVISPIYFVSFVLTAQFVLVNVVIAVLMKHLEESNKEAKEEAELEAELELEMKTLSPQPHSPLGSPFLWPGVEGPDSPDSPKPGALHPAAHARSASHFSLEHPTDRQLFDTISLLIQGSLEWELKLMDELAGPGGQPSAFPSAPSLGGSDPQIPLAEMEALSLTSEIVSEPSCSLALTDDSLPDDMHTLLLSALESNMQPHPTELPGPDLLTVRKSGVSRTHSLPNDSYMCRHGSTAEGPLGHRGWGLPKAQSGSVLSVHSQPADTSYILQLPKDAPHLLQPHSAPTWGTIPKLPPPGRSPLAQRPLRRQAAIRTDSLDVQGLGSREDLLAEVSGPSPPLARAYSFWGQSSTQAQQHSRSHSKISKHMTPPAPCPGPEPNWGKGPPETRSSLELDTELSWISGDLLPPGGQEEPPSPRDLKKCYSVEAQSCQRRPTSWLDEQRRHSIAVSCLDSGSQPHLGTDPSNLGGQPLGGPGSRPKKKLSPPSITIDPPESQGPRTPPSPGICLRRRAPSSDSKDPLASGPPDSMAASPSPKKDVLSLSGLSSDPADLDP

| IC50 [2] [nM] | % Inhibition (Single Point Data) (Testing Conc 1, HEK-293 natClytin/TASK1+Cav3.1 cell line) [%] | Compound | % Inhibition (Single Point Data) [1] [%] | IC50 [nM] |
| --- | --- | --- | --- | --- |
|  |  | CC(C)(NC(=O)CN1CC2CC1CN2CC(=O)Nc1cc(F)cc(OC(F)F)c1)C(F)(F)F (stereo not shown) [Compound 55] | 76.829 |  |
| 1250 |  | CC1(NC(=O)CN2CC3CC2CN3CC(=O)Nc2ccc(F)c(Cl)c2)CC1 (stereo not shown) [Compound 234] | 51.647 |  |
|  |  | CC(c1nc2c(Cl)cc(F)cc2[nH]1)N1CC2CCC(C1)N2CC(=O)NC(C)(C)C (stereo not shown) [Compound 201] | 95.763 | 84.2 |
|  |  | CCC(C)(C)NC(=O)CN1C2CCC1CN(Cc1nc3c(Cl)cc(F)cc3[nH]1)C2 [Compound 75] | 99.169 |  |
| < 78.2 |  | COc1cc(NC(=O)CN2C[C@@H]3C[C@H]2CN3CC(=O)NC(C)(C)C)ccc1Cl [Compound 337] | 95.366 |  |
| 457 |  | CC(C)(NC(=O)CN1C[C@H]2C[C@@H]1CN2CC(=O)Nc1ccc(F)c(Cl)c1)C(F)(F)F [Compound 27] | 69.274 |  |
| 455 |  | CC(C)(C)NC(=O)CN1C[C@@H]2CC[C@H]1CN2CC(=O)Nc1ccc(F)c(OC(F)F)c1 [Compound 267] | 73.222 |  |
|  |  | CC(C)(C)NC(=O)CN1C2CC1CN(Cc1nc3c(C#N)cc(F)cc3[nH]1)C2 [Compound 114] | 95.181 | < 78.2 |
|  |  | O=C(CN1C2CCC1CN(Cc1nc3c(Cl)cc(F)cc3[nH]1)C2)N1CCCCC1 [Compound 78] | 97.937 |  |
| 5720 |  | CC(C)(C)NC(=O)CN1CCO[C@H](CNC(=O)c2ccc(F)c(OC(F)F)c2)C1 [Compound 367] |  |  |
|  |  | CC(C)(C)CCCN1C2CC1CN(Cc1nc3c(Cl)cc(F)cc3[nH]1)C2 [Compound 107] | 101.43 | < 78.2 |
| 518 |  | CC(C)(C)NC(=O)CN1C[C@H]2C[C@@H]1CN2CC(=O)NC12CC3CC(CC(C3)C1)C2 [Compound 261] | 70.332 |  |
|  |  | CN(C(=O)CN1C2CC1CN(Cc1nc3c(Cl)cc(F)cc3[nH]1)C2)C1(C)CCC1 [Compound 100] | 88.827 |  |
| 1930 |  | CC(C)(C)NC(=O)CN1C[C@@H]2C[C@H]1CN2CC(=O)NC1CCCC(OC(F)F)C1 (stereo partly shown) [Compound 343] | 32.872 |  |
| 94 |  | COc1cc(NC(=O)CN2C[C@@H]3C[C@H]2CN3CC(=O)NC(C)(C)C)cc(F)c1F [Compound 354] |  |  |
|  |  | COC1(CCN2C3CCC2CN(Cc2nc4c(Cl)cc(F)cc4[nH]2)C3)CCCC1 [Compound 89] | 98.148 |  |
| 2240 |  | CC(C)Cc1cc(CNC(=O)CN2CCN(CC(=O)NC(C)(C)C)CC2)nn1-c1ccccc1 [Compound 1, 2-[4-[2-(tert-butylamino)-2-oxo-ethyl]piperazin-1-yl]-N-[(5-isobutyl-1-phenyl-pyrazol-3-yl)methyl]acetamide] | 27.978 |  |
| 581 |  | CC(C)(C)NC(=O)CN1C[C@@H]2CC[C@H]1CN2CC(=O)Nc1ccc(F)c(Cl)c1 [Compound 271] | 70.509 |  |
|  |  | Cc1cc(NC(=O)CN2C[C@@H]3C[C@H]2CN3CC(=O)NC2(C(F)(F)F)CC2)ccc1F [Compound 340] | 50 |  |

| IC50 [2] [nM] | % Inhibition (Single Point Data) (Testing Conc 1, HEK-293 natClytin/TASK1+Cav3.1 cell line) [%] | Compound | % Inhibition (Single Point Data) [1] [%] | IC50 [nM] |
| --- | --- | --- | --- | --- |
| 703 |  | CC(C)(C)C(O)CN1C[C@@H]2C[C@H]1CN2CC(=O)NC12CC3CC(CC(C3)C1)C2 (stereo partly shown) [Compound 297] | 63.628 |  |
|  |  | CN(CCN1C2CC1CN(Cc1nc3c(Cl)cc(F)cc3[nH]1)C2)C(=O)C1(C)CC1 [Compound 145] | 83.5 |  |
| < 78.2 |  | Fc1ccc(Cl)c2nc(CN3CCN(CC(F)C4CCCCC4)CC3)[nH]c12 (stereo not shown) [Compound 161] | 95.402 |  |
| 416 |  | Fc1cc(Cl)c2nc(CN3CCN(CC(F)(F)C4CCCCC4)CC3)[nH]c2c1 [Compound 162] | 73.357 |  |
| 185 |  | CC(C)(C)NC(=O)CN1C2CC(CNC(=O)c3cc(F)cc(Cl)c3)CC1C2 (stereo not shown) [Compound 322] | 91.88 |  |
| 316 | 38.937 | CC(C)(C)NC(=O)CN1CCN(CC(=O)Nc2noc3ccccc23)CC1 [Compound 41] |  |  |
|  |  | O=C(CN1CC2CC1CN2CC(=O)NC1(C(F)(F)F)CC1)Nc1ccc(F)c(Cl)c1 (stereo not shown) [Compound 238] | 79.048 |  |
| 1960 |  | CC(C)(C)NC(=O)CN1C[C@H]2COC[C@@H](C1)[C@H]2CC(=O)Nc1cc(F)cc(Cl)c1 [Compound 371] |  |  |
|  |  | Cc1cccc2[nH]c(CN3CC4CCC(C3)N4CC(=O)NC(C)(C)C)nc12 [Compound 194] | 97.438 |  |
| 407 |  | CC(C)(NC(=O)CN1CC2CC1CN2Cc1nc2c(Cl)ccc(F)c2[nH]1)C(F)(F)F (stereo not shown) [Compound 149] | 99.801 |  |
| 609 |  | CC(C)(C)NC(=O)CN1CC2CCC1CN2CC(=O)NC12CC3CC(CC(C3)C1)C2 (stereo not shown) [Compound 8] | 76.573 |  |
| 215 |  | CC(C(=O)Nc1cc(F)cc(Cl)c1)N1C[C@@H]2C[C@H]1CN2CC(=O)NC1(C(F)(F)F)CC1 (stereo partly shown) [Compound 262] | 87.794 |  |
| 645 |  | CC(C)(C)NC(=O)CN1CCC(CNc2nccc3c(Cl)cc(F)cc23)CC1 [Compound 124] | 67.808 |  |
|  |  | CC(C)(C)NC(=O)CN1C[C@@H]2C[C@H]1CN2CC(=O)NC12CC3CC(CC(O)(C3)C1)C2 [Compound 312] | 4.6566 |  |
|  |  | CC(C)(C(=O)NCCN1C2CC1CN(CC(=O)Nc1cc(F)cc(Cl)c1)C2)C(F)(F)F [Compound 230] | 96.987 |  |
| 1310 |  | CC(C)(C)NC(=O)CN1C[C@@H]2C[C@H]1CN2CC(=O)Nc1cccc(OC(F)F)c1 [Compound 253] | 38.026 |  |
|  |  | CC1(C)CN(C(=O)CN2C3CCC2CN(Cc2nc4c(Cl)cc(F)cc4[nH]2)C3)C1 [Compound 91] | 97.882 |  |
| 612 |  | CC(C)(C)NC(=O)CN1C[C@@H]2C[C@H]1CN2CC(=O)NC12CC3CC(CC(F)(C3)C1)C2 [Compound 300] | 65.343 |  |

| Compound | IC50 [2] [nM] | % Inhibition (Single Point Data) (Testing Conc 1, HEK-293 natClytin/TASK1+Cav3.1 cell line) [%] | % Inhibition (Single Point Data) [1] [%] | IC50 [nM] |
| --- | --- | --- | --- | --- |
| CC(C)(NC(=O)CN1C2CC1CN(CC(=O)Nc1cc(F)cc(OC(F)F)c1)C2)C(F)(F)F [Compound 224] | 159 |  | 83.389 |  |
| Cc1ccc(Cl)cc1NC(=O)CN1CC2CC(C1)N2CC(=O)NC(C)(C)C [Compound 221] | 882 |  | 48.175 |  |
| Fc1cc(Cl)c2nc(CN3CC4CC(C3)N4CC3CCOCC3)[nH]c2c1 [Compound 117] | 1360 |  | 40.989 |  |
| CC(C)(C)NC(=O)CN1C2CC1CN(CC(=O)NCC13CC4CC(CC(C4)C1)C3)C2 [Compound 306] | 1990 |  | 34.765 |  |
| CC(C)(C)NC(=O)CN1C2CC1CN(CC(=O)Nc1cc(F)c(F)c(Cl)c1)C2 [Compound 350] | < 78.2 |  |  |  |
| CC(C)(C)NC(=O)CN1C2CC1CN(CC(=O)Nc1ccc(F)c(C(F)(F)F)c1)C2 [Compound 249] | 1010 |  | 99.326 |  |
| Fc1cc(Cl)c2nc(CN3CC4CC(C3)N4CC(F)C3CCCCC3)[nH]c2c1 (stereo not shown) [Compound 169] | 297 |  | 84.629 |  |
| O=C(CN1CC2CC(C1)N2CC1(O)CCC(F)(F)CC1)NC12CC3CC(CC(C3)C1)C2 [Compound 278] | 1210 |  | 45.568 |  |
| COc1ccc(F)cc1NC(=O)CN1CC2CC(C1)N2CC(=O)NC(C)(C)C [Compound 218] | 2890 |  | 36.544 |  |
| Cc1cc(F)cc2[nH]c(CN3CC4CCC(C3)N4CC(=O)NC(C)(C)C)nc12 [Compound 190] | 210 |  | 94.944 |  |
| CC(C)(C)NC(=O)CN1C2CC1CN(CC(=O)Nc1cc(F)cc(Cl)c1)C2 [Compound 10] | 143 |  | 83.732 |  |
| CC(C)(C)NC(=O)CN1CC2COCC(C1)N2Cc1nc2c(Cl)cc(F)cc2[nH]1 [Compound 153] | 386 |  | 82.059 |  |
| CC(C(=O)NC(C)(C)C)N1C2CC1CN(CC(=O)Nc1ccc(F)c(Cl)c1)C2 (stereo not shown) [Compound 260] | 274 |  | 80.656 |  |
| O[C@H]1CC[C@H](OCCN2C3CC2CN(Cc2nc4c(Cl)cc(F)cc4[nH]2)C3)CC1 [Compound 133] | 553 |  | 72.888 |  |
| CC1(C(=O)OCCN2C3CC2CN(Cc2nc4c(Cl)cc(F)cc4[nH]2)C3)CC1 [Compound 143] | 174 |  | 78.298 |  |
